Experiments:
B16-F10 cells = test: PowerBlot screen of expression of over 950 proteins; format: cell-based, mouse; conditions: 100 ng/ml, 16 hr
Description: A second series of experiments tested the activity of AVP 893 on the expression of over 950 proteins by Western blotting in vitro (in triplicate); methods detailed below. B16 tumor cells were chosen for this screen and a 16 hour duration of AVP 893 treatment was selected to optimize the number of proteins that might be modified by drug. […] B16-F10 cells were cultured for 16 hr in the presence or absence of 100 ng/ml AVP 893. Samples were harvested and lysates prepared according to instructions supplied by Becton-Dickinson. Samples were placed on dry ice and submitted to the same for expression analysis of 950 proteins. […] Although both proteins have entirely different functions in the cell, and have not been linked (apparently) in the scientific literature, there is a rational explanation for the changes noted in each protein, as described below.

B16F10 cells = test: Density gradient centrifugation, intracellular protein distribution; format: cell-based; conditions: B16 cells, 16 hours drug
Description: To test this possibility directly, cells were cultured with and without drug for 16-20 hours, harvested, lysed, and layered on top of a gradient of varying density iodixanol-containing fractions (2.5-30%). The gradients were centrifuged for 2 to 18 hours at 56K x g, collected, and tested for resident proteins via Western blot. Fractions were probed with antibodies specific for calnexin (ER-specific marker), γ-adaptin (golgi), and Rab5a (vesicles). […] FIGS. 34 and 35 also show the unfractionated levels of Rab6 and Rab1B, respectively, that were obtained prior to density gradient centrifugation. No difference in the expression of these 3 marker proteins was observed between the control and drug-treated cells.
B16F10 cells were seeded into 175 cm2 flasks one day prior to drug application. On the subsequent day, fresh media +/−drug was applied to the cultures. 16 hours later, the cells were washed with cold Dulbecco's PBS, then harvested in ice-cold homogenization buffer: 130 mM KCl, 25 mM NaCl, 1 mM EGTA, 25 mM Tris pH7.4, plus 15 ul protease inhibitor per 5 mL buffer. 1 mL of buffer was used per flask, and the cells were scrapped off into 14 mL round-bottom culture tubes and kept on ice. The harvested cells were then homogenized with a tissue homogenizer (Polytron PT10/35), transferred into 2 mL centrifuge tubes, and spun at 1,000 rpm for 8 min at 4° C. […]

GM-130 = GM-130 expression; format: cell-based; conditions: data not shown
Text: Likewise, the non-resident golgi protein Rab6 appeared to be unaffected in some cell types, as illustrated in FIG. 31.

GS28 = GS28 expression by Western blotting; format: cell-based; conditions: for GS28 expression: 100 ng/ml
Description: The culture medium was removed by vacuuming (for attached cells) or by low speed centrifugation (for suspension cells) for 5-7 minutes at room temperature. The cells were wasedh twith PBS, spun at 1200 rpm and the cell pellets were kept on ice. 300 μl/2.0×10^7 cells of ice cold lysis buffer was added with freshly added protease inhibitors. Cell pellets were gently resuspended and incubated on ice for at least 30 min, vortexed a few times during incubation. Cell lysate was spun at 14,000 rpm for 2-5 min at 4° C. The supernatant was transferred to a new microfuge tube and the pellet was discarded. An aliquot of sample was mixed with an equal volume of 2× sample buffer (InVitrogen), and stored at −80° C. Protein concentration was determined by using “BCA protein assay reagent kit” from Pierce.
Protein samples (in sample buffer) were boiled for 1-3 minutes and put on ice. Same amount of protein were loaded on the NuPage gel (InVitrogen). After the electrophoresis was complete, proteins were transferred from the gel to a PVDF membrane using the electro-blotting apparatus from InVitrogen; the voltage was set to 25 for 2-3 hr. Block non-specific binding by incubating membrane with 5% milk (in PBS, 0.1% tween 20) for at least 30 min at room temperature or overnight at 4° C. The blocked membrane was incubated with primary antibody (See TABLE 2) diluted in 5% milk for 1 hour at room temperature. Optimal antibody dilution depends on the company, the amount of protein. Dilutions of 1:1000 were generally used for the primary antibodies from Santa Cruz. The membrane was washed with PBS, 0.1% tween 3-4 times 5 mins. The membrane was incubated for 30-60 minutes at room temperature with horseradish peroxidase (HRP) conjugated secondary antibody diluted in 5% milk. We usually used 1:4000 dilution for the secondary antibody from Santa Cruz. The membrane was washed 3-4 times with PBS, 0.1% tween, each time 15 minutes. The detection solutions A and B were mixed in a ratio 40:1 and Pipetted onto the membrane, and incubated for 5 min at RT. A sheet of Hyper film ECL was placed on the top of the membrane in the dark and exposed for 1 min, or adjust accordingly.
To further examine the putative protein trafficking effects of AVP 893, other proteins in this pathway were tested in vitro in B16 and other cell lines. The effect of AVP 893 on cellular proteins was corroborated in B16 cells and extended to include a time-course (FIG. 17). B16-F10 tumor cells were seeded in T75 flasks at 20% confluence and cultured overnight. AVP 893 (100 ng/ml) was added to several flasks and one flask of cells was harvested at several time points following addition of compound. Lysates were prepared, separated by electrophoresis, and probed with antibody as described above in the general Western blotting protocol. Drug effects on GS28 and nicastrin paralleled each other and were progressively stronger with longer drug incubations. […] Other cell lines were tested for their expression of GS28 and nicastrin and found to respond similarly to drug, although quantitative differences were evident. Tumor cell lines found to respond similarly to AVP 893 include CAK1, SF295, PC3, MOLT4, Neuro2a, and RBL (FIGS. 18, 19, and 20). For the experiment shown in FIG. 18, LOX, CAKI, and 3T3 cell lines were treated as described for FIG. 17. For the results shown in FIG. 19, SF295, PC3, MOLT-4, and Neuro2a cells were treated as described for FIG. 17. For the results shown in FIG. 20, LOX, 3T3, and RBL cell lines were treated with varying concentrations of AVP 893 as described for FIG. 17. The effects on LOX cells were less evident. […] Levels of calnexin, a resident ER protein used as a control, were unchanged in drug-treated cells.

In the case of O=C(Nc1ccc(-c2nc3cc(NC(=O)C4CCCCC4)ccc3[nH]2)cc1)C1CCCCC1 [AVP 893], the “number of proteins consistently and significantly modified of over 950” value (B16-F10 cells) is reported as 6, the “distribution of Rab 1b and Rab 6 in gradient fractions” value (B16F10 cells) is reported as “retained in the ER at the expense of the golgi compartment” and the GM-130 expression (GM-130) is reported as “did not appear to be affected”. The “expression of GS28 and GS15 compared with monensin, Brefeldin A, rapamycin” value (GS28; 3T3 cells, 200 ng/ml, 18 hour) was “decreased the expression of GS28 and GS15 more markedly than the other three agents”, the “IC50 for GS28 expression” value (GS28; 3T3 cells, overnight) was 10 and 100 ng/ml and the “levels of GS28” value (GS28; 3T3 fibroblast cell line) was “virtually eliminated”. For the same molecule, the GS28 expression (GS28; B16 cells, two days of culture) was “complete loss of GS28”, the “GS28 or nicastrin expression” value (GS28; resistant line H-460, overnight) was “little effect” and the GS28 expression (GS28; stimulated BALB/c spleen cells, 20 hours) was “abrogated”.
